{"source": "patent US9034895B2", "about": "“Composition and methods for treating glioblastoma” (University of Washington Through its Center for …, priority 2010, dated 2015)", "key": {"CB1": {"molecular_target": "T1, CB1 (Mus musculus, UniProt P47746)", "T1 construct": "plasmids containing full coding region of mouse CB1 and CB2; expressed in transfected cells", "T1 sequence (P47746 whole entry, the tested form may be a part)": "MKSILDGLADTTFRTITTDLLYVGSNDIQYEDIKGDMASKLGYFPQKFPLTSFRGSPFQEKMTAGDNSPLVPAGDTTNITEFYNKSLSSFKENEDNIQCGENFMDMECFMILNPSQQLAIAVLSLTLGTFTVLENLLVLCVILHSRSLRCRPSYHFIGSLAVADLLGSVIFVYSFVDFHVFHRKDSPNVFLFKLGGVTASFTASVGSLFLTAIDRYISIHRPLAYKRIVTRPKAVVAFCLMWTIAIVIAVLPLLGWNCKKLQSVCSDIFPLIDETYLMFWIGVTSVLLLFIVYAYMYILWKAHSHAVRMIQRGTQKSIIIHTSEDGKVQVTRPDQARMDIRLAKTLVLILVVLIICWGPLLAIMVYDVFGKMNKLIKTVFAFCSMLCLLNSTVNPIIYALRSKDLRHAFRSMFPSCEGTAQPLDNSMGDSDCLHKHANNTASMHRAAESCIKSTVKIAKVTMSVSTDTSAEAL", "assay": "Radioligand competition binding, [3H]-CP55940, CB1-expressing HEK293 membranes", "protocol": "Stable CB1 and CB2 expressing HEK293 cell lines were generated using plasmids containing full coding region of mouse CB1 and CB2.\nFragments were amplified from total RNA of cell lines by reverse transcriptase-polymerase chain reaction (RT-PCR). Sequence was confirmed and the fragment was cloned into the EcoRI site of the pIRES2-eGFP-express vector. Cells were grown to approximately 80% confluence in 10 cm cell culture dishes, transfected with the cDNA pIRES-eGFP-vector containing the murine CB1 or CB2 receptor using LipofectAMINE™ 2000 reagent in the serum-free media Opti-MEM 1 according to the manufacturer's description. Cells were subject to FACS sorting 48 h after transfection and single cell sorted based on dsRed expression into 96-well plates. Of the dsRed expressing positive clones, 3 were validated for CB1 and CB2 protein expression by radioligand binding analysis (methods discussed below).\nCells were grown to 90% confluence, rinsed twice with 1×PBS and stored at −80° C. until further use. To prepare crude cellular membrane fractions, dishes were removed from −80° C. and thawed at room temperature for 5 min. Once thawed, cells were lysed with ice-cold homogenization buffer (50 mM Tris, 1 mM EDTA, 3 mM MgCl2) and gently scraped from the dish. Total cell lysates from 3-5 dishes were collected on ice in 3 ml of ice-cold homogenization buffer. Cells were homogenized at 6,500 rpm (PRO Scientific, Oxford, Conn.) twice for 10 sec and centrifuged at 11,500 rpm for 20 min at 4° C. Supernatants were discarded and cell pellets were resuspended in homogenization buffer and triturated 10 times in ice-cold homogenization buffer. Crude cellular membrane homogenates were stored at −80° C. until further use. On the day of experiments, frozen homogenates were thawed at room temperature, gently triturated 10 times and subsequently dounce homogenized in a 7 ml glass tissue grinder (Wheaton Science Products, Millville, N.J.) by 5 strokes while on ice. […]"}, "U251, A172 and GBM8": {"test_system": "U251, A172 and GBM8", "assay": "Toxic profile in human astrocytoma cell lines", "assay_type": "cell-based", "settings": "range over the three cell lines (FIG. 4), read-out: potency at killing human astrocytoma cell lines U251, A172 and GBM8", "protocol": "(§1) Cells were plated media supplemented with 10% serum in 96-well plates (10^4 cells per wellI; 0.1 ml per well). Once they reached ˜70% confluence, they were rinsed with PBS and kept for an additional 24 hrs in media supplemented with 1% serum, at which time drugs or vehicle (DMSO, 0.1%, prepared in 10 μl serum-free media) were directly added to each well. After 3 days, cell viability was assessed using the Cell Proliferation Reagent WST-1 (Roche, Indianapolis, Ind.). Briefly, WST-1 reagent (10 μl) was added to each well for 3 hrs at 37° C. with 5% CO2 and WST-1 products were read at 450 nm using Packard SpectraCount™.\n(§2) JWH-451 was tested for toxicity in cells expressing GPR124."}, "[1]": {"test_system": "cardiac and motorneuron progenitors", "assay": "Toxic profile in progenitor cells", "assay_type": "cell-based", "settings": "compared with astrocytoma cell lines", "protocol": "as §2"}, "T98g cells": {"test_system": "T98g cells", "assay": "Cell viability assay (WST-1), toxic potency and efficacy at T98g cells", "assay_type": "cell-based", "settings": "Homo sapiens, 72 h", "protocol": "as §1\nBecause the strongest toxic effect of WIN55212-2 was measured in T98g cells, these cells are used as readout to study the structure activity relationship (SAR) of AAI compounds at inducing cell death through AAI receptors."}, "[2]": {"test_system": "mouse neurons in primary culture", "assay": "Toxic profile in neurons in primary culture", "assay_type": "cell-based"}, "[3]": {"test_system": "endothelial cell line bEnd.3", "assay": "Toxic profile in endothelial cell line", "assay_type": "cell-based", "protocol": "as §2"}}}
{"smiles": "CCn1c(C)c(C(=O)c2ccc(C)c3ccccc23)c2ccccc21", "note": "[JWH-451, 1-Ethyl-2-methyl-3-(4-methyl-1-napthoyl)indole]", "values": [{"measurement": "competition for [3H]-CP55940 binding at CB1", "setting": "CB1; FIG. 2 (CB1 not shown)", "result": "does not"}, {"measurement": "lower affinity at CB1 receptors than WIN55212-2", "setting": "CB1; relative to WIN55212-2", "result": 100, "unit": "fold"}, {"measurement": "EC50", "setting": "U251, A172 and GBM8", "result": "2 to 4", "unit": "µM"}, {"measurement": "toxic effect on cardiac and motorneuron progenitors", "setting": "[1]", "result": "much less toxic effect"}, {"measurement": "Emax", "setting": "T98g cells; read-out: Toxic potency at T98g cells (percent efficacy)", "result": 81, "unit": "%"}, {"measurement": "EC50", "setting": "T98g cells; read-out: Toxic potency at T98g cells potency μM", "result": 1.1, "unit": "µM"}, {"measurement": "viability of mouse neurons in primary culture", "setting": "[2]", "result": "did not affect the viability"}, {"measurement": "viability of endothelial cell line bEnd.3", "setting": "[3]", "result": "did not affect the viability"}]}
